Values of other authors in patent US20070054964A1 (Wyeth, priority 2005, published 2007).

What was measured:
[1] = test system: neuronal norepinephrine re-uptake
[2] = compared with ODV free base
[3] = compared with ODV free base; remark: listed apart in the source
[4] = oral administration, vs venlafaxine, ODV or other salts of ODV
[5] = test system: neuronal serotonin re-uptake
[6] = molecular target: H1-histaminergic receptors (Homo sapiens, UniProt P35367)
[7] = in vitro studies, Muth et al. 1991

Sequence of H1-histaminergic receptors (P35367 whole entry): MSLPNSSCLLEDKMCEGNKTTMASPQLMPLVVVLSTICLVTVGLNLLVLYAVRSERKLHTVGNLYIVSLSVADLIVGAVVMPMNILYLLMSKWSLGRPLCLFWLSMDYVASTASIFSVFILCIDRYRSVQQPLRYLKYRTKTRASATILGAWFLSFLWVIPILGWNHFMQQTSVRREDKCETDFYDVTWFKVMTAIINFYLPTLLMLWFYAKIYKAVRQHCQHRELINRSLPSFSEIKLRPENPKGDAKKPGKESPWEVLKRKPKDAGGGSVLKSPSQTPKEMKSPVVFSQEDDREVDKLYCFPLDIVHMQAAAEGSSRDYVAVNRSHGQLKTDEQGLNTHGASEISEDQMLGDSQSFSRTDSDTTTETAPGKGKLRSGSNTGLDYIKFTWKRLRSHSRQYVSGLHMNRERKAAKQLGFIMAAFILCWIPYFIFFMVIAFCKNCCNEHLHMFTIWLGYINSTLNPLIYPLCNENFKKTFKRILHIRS

Compound | affinity for α1-adrenergic receptors (α1-adrenergic receptors) | inhibition of neuronal norepinephrine re-uptake [1] | inhibition of dopamine re-uptake (dopamine re-uptake) | bioavailability [2] | permeability [3] | incidence of nausea, vomiting, diarrhea, abdominal pain, headache, vaso-vagal malaise, and/or trismus [4] | inhibition of neuronal serotonin re-uptake [5] | potency of serotonin re-uptake inhibition compared with venlafaxine [5, 7] | solubility compared with venlafaxine | potency of norepinephrine re-uptake inhibition compared with venlafaxine [1, 7] | affinity for H1-histaminergic receptors [6] | affinity for muscarinic receptors (muscarinic receptors)
COc1ccc(C(CN(C)C)C2(O)CCCCC2)cc1 (racemic) [Venlafaxine, (±)-1-[2-(dimethylamino)-1-(4-methoxyphenyl)ethyl]-cyclohexanol] | no significant affinity | potent inhibitors | weak inhibitors | – | – | – | – | – | – | – | – | –
CN(C)CC(c1ccc(O)cc1)C1(O)CCCCC1.O=C(O)CCC(=O)O (stereo not drawn) [ODV succinate] | – | – | – | improved | improved | lower incidence | – | – | – | – | – | –
CN(C)CC(c1ccc(O)cc1)C1(O)CCCCC1 (stereo not drawn) [ODV, 1-[2-(dimethyl-amino)-1-(4-phenyl)ethyl]-cyclohexanol] | no significant affinity | potent inhibitors | weak inhibitors | – | – | – | potent inhibitors | more potent inhibitor | more soluble | more potent inhibitor | no significant affinity | no significant affinity
